From PubChem BioAssay (NCI)
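Each compound was tested at five concentrations against cells in 96-well plates for 48 hours. GI50 marks 50% less growth. TGI: concentration producing complete growth inhibition.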

Columns and labels:
Assay in all cases: growth of human tumour cells (NCI), 48 h
[1] = tested on: SNB-19 CNS
[2] = tested on: RPMI-8226 leukemia
[3] = tested on: MDA-MB-231 breast
[4] = tested on: SK-MEL-28 melanoma
[5] = tested on: SK-MEL-5 melanoma
[6] = tested on: SF-539 CNS
[7] = tested on: SN12C renal
[8] = tested on: NCI/ADR-RES ovarian
[9] = tested on: SK-MEL-2 melanoma
[10] = tested on: ACHN renal
[11] = tested on: KM12 colon
[12] = tested on: MOLT-4 leukemia
[13] = tested on: UO-31 renal
[14] = tested on: OVCAR-8 ovarian
[15] = tested on: HS 578T breast
[16] = tested on: MALME-3M melanoma
[17] = tested on: HOP-62 NSCLC
[18] = tested on: K-562 leukemia
[19] = tested on: OVCAR-4 ovarian
[20] = tested on: A498 renal
[21] = tested on: NCI-H226 lung
[22] = tested on: HT29 colon
[23] = tested on: NCI-H522 lung
[24] = tested on: NCI-H23 lung
[25] = tested on: EKVX NSCLC
[26] = tested on: U251 CNS
[27] = tested on: IGROV1 ovarian
[28] = tested on: OVCAR-3 ovarian
[29] = tested on: BT-549 breast

**Q.** How did the GI50 [1] turn out when `Cn1ncc2c(Nc3ccc(Br)cc3)nc(Nc3ccc(Br)cc3)nc21` was run?
**A.** 6.42 µM

**Q.** What about the TGI [1] of the same molecule?
**A.** 18.9 µM

**Q.** And the GI50 [2]?
**A.** 2400 nM

**Q.** What about the TGI [2] of the same molecule?
**A.** 8.87 µM

**Q.** And the GI50 [3]?
**A.** 1800 nM

**Q.** And the TGI [3]?
**A.** 3.68 µM

**Q.** What about the GI50 [4] of the same molecule?
**A.** 5.09 µM

**Q.** What about the TGI [4] of the same molecule?
**A.** 17 µM

**Q.** What about the GI50 [5] of the same molecule?
**A.** 2200 nM

**Q.** And the TGI [5]?
**A.** 7.52 µM

**Q.** And the GI50 [6]?
**A.** 3.17 µM

**Q.** And the TGI [6]?
**A.** 10.8 µM

**Q.** And the GI50 [7]?
**A.** 3.28 µM

**Q.** And the TGI [7]?
**A.** 12.9 µM

**Q.** And the GI50 [8]?
**A.** 3.64 µM

**Q.** What about the TGI [8] of the same molecule?
**A.** 16.1 µM

**Q.** And the GI50 [9]?
**A.** 2890 nM

**Q.** What about the TGI [9] of the same molecule?
**A.** 8.56 µM

**Q.** What about the GI50 [10] of the same molecule?
**A.** 3.74 µM

**Q.** And the TGI [10]?
**A.** 13 µM

**Q.** What about the GI50 [11] of the same molecule?
**A.** 1760 nM

**Q.** And the TGI [11]?
**A.** 3.48 µM

**Q.** What about the GI50 [12] of the same molecule?
**A.** 346 nM

**Q.** And the TGI [12]?
**A.** 5.23 µM

**Q.** And the GI50 [13]?
**A.** 3.28 µM

**Q.** And the TGI [13]?
**A.** 29 µM

**Q.** What about the GI50 [14] of the same molecule?
**A.** 4.15 µM

**Q.** And the TGI [14]?
**A.** 63.5 µM

**Q.** And the GI50 [15]?
**A.** 2610 nM

**Q.** What about the TGI [15] of the same molecule?
**A.** 9.59 µM

**Q.** What about the GI50 [16] of the same molecule?
**A.** 3.32 µM

**Q.** And the TGI [16]?
**A.** 14.7 µM

**Q.** And the GI50 [17]?
**A.** 4.22 µM

**Q.** What about the TGI [17] of the same molecule?
**A.** 15.4 µM

**Q.** And the GI50 [18]?
**A.** 1590 nM

**Q.** What about the TGI [18] of the same molecule?
**A.** 4.3 µM

**Q.** What about the GI50 [19] of the same molecule?
**A.** 3.51 µM

**Q.** What about the TGI [19] of the same molecule?
**A.** 16.1 µM

**Q.** And the GI50 [20]?
**A.** 2680 nM

**Q.** And the TGI [20]?
**A.** 9.9 µM

**Q.** And the GI50 [21]?
**A.** 2620 nM

**Q.** And the TGI [21]?
**A.** 13.4 µM

**Q.** What about the GI50 [22] of the same molecule?
**A.** 2030 nM

**Q.** And the TGI [22]?
**A.** 4.32 µM

**Q.** And the GI50 [23]?
**A.** 3.44 µM

**Q.** What about the TGI [23] of the same molecule?
**A.** 15.7 µM

**Q.** And the GI50 [24]?
**A.** 3.63 µM

**Q.** What about the TGI [24] of the same molecule?
**A.** 16.2 µM

**Q.** And the GI50 [25]?
**A.** 2480 nM

**Q.** What about the TGI [25] of the same molecule?
**A.** 9.73 µM

**Q.** And the GI50 [26]?
**A.** 2890 nM

**Q.** And the TGI [26]?
**A.** 10 µM

**Q.** And the GI50 [27]?
**A.** 3.22 µM

**Q.** And the TGI [27]?
**A.** 16.7 µM

**Q.** And the GI50 [28]?
**A.** 3.95 µM

**Q.** What about the TGI [28] of the same molecule?
**A.** 12.3 µM

**Q.** What about the GI50 [29] of the same molecule?
**A.** 4.68 µM
